Publication PMC10880116, “Identification of potential anti-inflammatory components in Moutan Cortex by bio-affinity ultrafiltration coupled with ultra-performance liquid chromatography mass spectrometry” (Frontiers in Pharmacology, 2024)

Experiments:
[1] = system: RAW264.7 cells; experiment: Cell viability assay (MTT); type: cell-based, mouse; settings: 12 h
Description: RAW264.7 cells originated from mouse macrophage cell line were purchased from the American Type Culture Collection. DMEM medium containing 5% fetal bovine serum and 1% Penicillin G Streptomycin was used to culture the cells under 37°C in a humidified atmosphere of 5% CO2.
Then DEME with 20% MTT solution was added, followed by a 37°C incubation for extra 4 h. After the supernatant was removed, DMSO was added to dissolve the insoluble formazan product. The optical density was measured by a microplate reader at 490 nm. In this experiment, the formula used to calculate cell viability was as follows: Cell viability %=ODexperimental group– ODblank group/ODcontrol group– ODblank group×100%

[2] = molecular target: T1, COX-2 (Homo sapiens, UniProt P35354); experiment: COX-2 inhibitory activity (COX-2 Inhibitor Screening Kit, fluorescence)
T1 sequence (P35354 18-604): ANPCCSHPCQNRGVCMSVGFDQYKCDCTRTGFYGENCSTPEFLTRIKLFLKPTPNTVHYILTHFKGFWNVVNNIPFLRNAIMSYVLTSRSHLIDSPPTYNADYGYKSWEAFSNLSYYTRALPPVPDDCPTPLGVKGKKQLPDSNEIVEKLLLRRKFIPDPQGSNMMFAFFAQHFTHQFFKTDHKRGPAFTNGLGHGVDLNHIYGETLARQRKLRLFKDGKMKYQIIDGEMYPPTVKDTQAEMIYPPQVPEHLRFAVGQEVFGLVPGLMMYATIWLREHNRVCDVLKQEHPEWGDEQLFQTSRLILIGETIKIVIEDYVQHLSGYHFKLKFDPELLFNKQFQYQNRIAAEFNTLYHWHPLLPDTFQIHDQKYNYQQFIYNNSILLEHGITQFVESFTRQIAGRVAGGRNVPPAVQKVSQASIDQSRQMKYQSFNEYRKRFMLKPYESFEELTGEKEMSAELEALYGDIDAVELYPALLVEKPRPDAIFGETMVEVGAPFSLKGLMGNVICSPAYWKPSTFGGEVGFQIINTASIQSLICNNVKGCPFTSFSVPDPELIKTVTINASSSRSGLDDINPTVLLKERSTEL
Description: In this experiment, the inhibitory effect was determined by using COX-2 Inhibitor Screening Kits. A 96-well black plate was employed, where COX-2 cofactor working solution (5 μL), COX-2 assay buffer (75 μL), test solution (5 μL), and COX-2 working solution (5 uL) were mixed and incubated for 10 min at 37°C in the dark. Then 5 μL of probe solution, together with 5 μL of COX-2 substrate solution, was added immediately. After a 37°C incubation in the dark for another 5 min, the fluorescence value was determined at an excitation wavelength of 560 nm and emission wavelength of 590 nm. […] Besides, COX-2 Assay Buffer was used in the blank control group to replace COX-2 working solution. MC extract or potential inhibitors were dissolved with DMSO as the test solution in the sample groups.
Where, F1, F2, and F3 respectively indicate the fluorescence value of the three groups—100% enzyme activity control group, sample group and blank control group.

[3] = molecular target: T1, COX-2; settings: 20 μM, mixture of positive and negative control, affinity ultrafiltration
Description: An experimental group and inactivated enzyme group were set up in this study for comparison. 40 μL of 100 mg/mL MC extract as well as 280 μL of COX-2 (100 U/mL) was transferred to EP tube in the experimental group, in contrast to the control group where 280 μL of inactivated COX-2 (boiled in the water bath for 30 min) was used as the substitute of the activated enzyme. The tubes from both groups were incubated at 37°C in the dark for 40 min, aiming to create an optimal condition under which the potentially suitable ligands would completely combined with the enzyme. A centrifugal filter was employed for ultrafiltration at 15000 × g for 15 min. Afterwards, 300 μL of PBS was added to the samples, and the unbound small molecules were removed by 15000 × g centrifugation for 15 min. […]
UPLC-Q-Exactive-Orbitrap-MS was performed to analyze the compounds in the filtrate using Thermo Scientific Orbitrap Fusion Tribrid Mass Spectrometer (Thermo Fisher Scientific, United States) and Ultimate 3,000 Ultra-performance liquid chromatograph, at the same time with Waters ACQUITY UPLC BEH RP18 (2.1 mm × 100 mm, 1.7 μm) employed for chromatographic analysis. […] The measurements were read at the detection wavelength of 254 nm. […] By comparing peak areas of two groups, specific ligands binding to COX-2 were determined. […]

Row | SMILES | Concentration exhibiting no cytotoxicity against RAW264.7 cells ([1]; MTT) [µM] | IC50 [2] [µM] | Concentration exhibiting no cytotoxicity against RAW264.7 cells ([1]; mouse) [µM] | Response value (HPLC peak) in active enzyme group compared with inactivated enzyme control group [3]
1 | O=C(O)c1cc(O)c(O)c(O)c1 [Gallic acid] | ≤ 250 | 1520 |  | 
2 | C[C@@]12C[C@@]3(O)O[C@@H](O1)[C@]1(COC(=O)c4ccccc4)[C@H]3C[C@@]12O[C@@H]1O[C@H](COC(=O)c2cc(O)c(O)c(O)c2)[C@@H](O)[C@H](O)[C@H]1O [Galloylpaeoniflorin] | ≤ 100 | 6.68 ± 1.29 |  | 
3 | COC(=O)c1cc(O)c(O)c(O)c1 [Methyl gallate] | ≤ 10 | 12.1 |  | 
4 | O=C(OC[C@H]1O[C@@H](OC(=O)c2cc(O)c(O)c(O)c2)[C@H](OC(=O)c2cc(O)c(O)c(O)c2)[C@@H](OC(=O)c2cc(O)c(O)c(O)c2)[C@@H]1OC(=O)c1cc(O)c(O)c(O)c1)c1cc(O)c(O)c(O)c1 [PGG, 1,2,3,4,6-Penta-O-galloyl-β-D-glucopyranose] |  | 220 | ≤ 150 | 
5 | O=C(OC[C@H]1O[C@@H](OC(=O)c2cc(O)c(O)c(O)c2)[C@H](OC(=O)c2cc(O)c(O)c(O)c2)[C@@H](OC(=O)c2cc(O)c(O)c(O)c2)[C@@H]1O)c1cc(O)c(O)c(O)c1 [TGG, 1,2,3,6-Tetra-O-galloyl-β-D-glucose] | ≤ 20 | 1.04 |  | 
6 | Nc1ncnc2c1ncn2[C@@H]1O[C@H](CO)[C@@H](O)[C@H]1O [adenosine, Adenosine] |  |  |  | no evident change
